The subject of one assay is HUV-EC-C cells. Nature of the assay: HUV-EC-C assay (3H-thymidine), VEGF. It counts as cell-based. As to conditions: Homo sapiens, 3H-thymidine incorporation, HUVEC. The method, then:
The following protocol may also be used to measure a compound's activity against PDGF-R, FGF-R or Flk-1/KDR, all of which are naturally expressed by HUV-EC cells. 1. Wash and trypsinize HUV-EC-C cells (human umbilical vein endothelial cells, (American Type Culture Collection; catalogue no. 1730 CRL). Wash with Dulbecco's phosphate-buffered saline (D-PBS; obtained from Gibco BRL, catalogue no. 14190-029) 2 times at about 1 mL/10 CM^2 of tissue culture flask. Trypsinize with 0.05% trypsin-EDTA in non-enzymatic cell dissociation solution (Sigma Chemical Company; catalogue no. C-1544). The 0.05% trypsin was made by diluting 0.25% trypsin/1 mM EDTA (Gibco; catalogue no. 25200-049) in the cell dissociation solution. Trypsinize with about 1 mL/25-30 cm^2 of tissue culture flask for about 5 minutes at 37° C. After cells have detached from the flask, add an equal volume of assay medium and transfer to a 50 mL sterile centrifuge tube (Fisher Scientific; catalogue no. 05-539-6). 2. Wash the cells with about 35 mL assay medium in the 50 mL sterile centrifuge tube by adding the assay medium, centrifuge for 10 minutes at approximately 200×g aspirate the supernatant and resuspend with 35 mL D-PBS. Repeat the wash two more times with D-PBS, resuspend the cells in about 1 mL assay medium/15 cm^2 of tissue culture flask. […]
For orientation: Incorporation of labelled thymidine or its analogues reports DNA synthesis.

The next assay addresses human FLK-1 (Homo sapiens, UniProt P35968). The assay can be described thus: FLK-1 autophosphorylation assay in vitro (ELISA). It counts as biochemical. Also on record: host or cells: FLK-1/NIH cells (NIH fibroblast line); lysate captured on L4 or E38 anti-FLK-1 antibody. Particulars: FLK-1 autophosphorylation in vitro, immobilized FLK-1 from FLK-1/NIH cell lysate. The source says: The following protocol describes the ELISA procedures used to determine the FLK-1 autophosphorylation activity in vitro. The procedure also describes the protocol for the initial screening of indolinone compounds. 2. FLK-1/NIH cells: NIH fibroblast line overexpressing human FLK-1 clone 3 (MPI, Martinsried, Germany). 6. L4 or […]: monoclonal antibody specific for FLK-1; purified by protein-A agarose affinity chromatography (SUGEN, Inc., Redwood City, Calif.). 2. Remove the medium and wash the cells twice with PBS. Lyse with HNTG lysis buffer. Collect all lysates and mix them on a vortex for 20-30 seconds. 1. Coat Corning 96-well ELISA plates with 2 ug/well of purified L4 (or […]) in 100 μL of PBS overnight at 4° C. 5. Dilute lysate in PBS to give final concentration of 50 ug/100 μL. Add 100 μL of diluted lysate per well. Incubate with shaking at 4° C. overnight. 7. Add 80 μL of kinase buffer to the wells (negative control wells get 90 μL). 8. Dilue compounds (normally 10 fold) into wells of a polypropylene plate containing 20% DMSO in TBS. 9. Add 10 μL of the prediluted compounds to the ELISA wells containing immobilized FLK-1 and shake. Control wells receive no compound. […] When the color in the positive control wells reaches an absorbance of about 0.35-0.4, read plates on Dynatech MR7000 ELISA reader. The IC50 values measured in the above assay for the compound of formula VI are depicted in Table 1: […]
Background: In an ELISA, binding on a coated surface is turned into a signal by an enzyme label.

Structures are written as SMILES. Where only a bound is given, the exact number is not on record here.

human FLK-1, sequence (P35968 20-1356): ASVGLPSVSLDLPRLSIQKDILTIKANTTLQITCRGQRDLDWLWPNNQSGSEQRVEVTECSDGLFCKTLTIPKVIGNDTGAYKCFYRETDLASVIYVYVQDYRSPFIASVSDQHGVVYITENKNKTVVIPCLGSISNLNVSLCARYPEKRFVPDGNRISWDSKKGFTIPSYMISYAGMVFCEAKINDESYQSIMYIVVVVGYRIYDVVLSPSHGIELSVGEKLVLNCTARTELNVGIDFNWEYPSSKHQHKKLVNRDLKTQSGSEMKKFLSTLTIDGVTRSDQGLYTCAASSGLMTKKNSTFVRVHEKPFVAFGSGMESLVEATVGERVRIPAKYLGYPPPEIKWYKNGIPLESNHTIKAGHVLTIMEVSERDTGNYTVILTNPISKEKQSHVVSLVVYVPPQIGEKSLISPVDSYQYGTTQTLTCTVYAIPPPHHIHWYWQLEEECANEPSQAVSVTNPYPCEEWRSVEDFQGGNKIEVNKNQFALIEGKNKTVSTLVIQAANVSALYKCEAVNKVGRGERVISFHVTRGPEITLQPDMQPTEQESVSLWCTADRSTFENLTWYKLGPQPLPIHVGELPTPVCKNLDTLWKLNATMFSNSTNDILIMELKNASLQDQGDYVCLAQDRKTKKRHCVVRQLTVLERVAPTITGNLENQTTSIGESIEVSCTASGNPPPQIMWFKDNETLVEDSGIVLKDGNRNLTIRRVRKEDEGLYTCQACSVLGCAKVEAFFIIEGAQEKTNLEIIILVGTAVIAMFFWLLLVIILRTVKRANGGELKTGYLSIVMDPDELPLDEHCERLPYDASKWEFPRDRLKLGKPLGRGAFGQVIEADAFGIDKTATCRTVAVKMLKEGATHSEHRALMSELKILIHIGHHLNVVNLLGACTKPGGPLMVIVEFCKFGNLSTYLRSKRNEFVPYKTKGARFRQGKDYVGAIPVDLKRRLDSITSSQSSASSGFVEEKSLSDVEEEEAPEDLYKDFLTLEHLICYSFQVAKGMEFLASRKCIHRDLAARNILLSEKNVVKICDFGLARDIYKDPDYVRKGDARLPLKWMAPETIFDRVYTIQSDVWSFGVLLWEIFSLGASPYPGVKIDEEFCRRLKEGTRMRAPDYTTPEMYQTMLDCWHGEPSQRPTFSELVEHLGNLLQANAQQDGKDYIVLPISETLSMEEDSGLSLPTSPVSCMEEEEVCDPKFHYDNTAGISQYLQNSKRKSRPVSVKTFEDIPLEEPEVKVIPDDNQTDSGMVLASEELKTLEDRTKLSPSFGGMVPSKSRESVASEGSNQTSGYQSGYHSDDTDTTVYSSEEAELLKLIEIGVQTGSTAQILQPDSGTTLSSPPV

For `Cc1cc(/C=C2/C(=O)Nc3ccccc32)c(C)c2c1[nH]c1ccccc12` [VI], the 50% inhibitory concentration (IC50) (as a rule, the concentration needed to halve the response being measured) with HUV-EC-C cells was 0.68 µM; against human FLK-1 it was over 50000 nM.

Values taken from US6514981B1, “Methods of modulating tyrosine protein kinase function with indolinone compounds” (Sugen, Inc., priority 1998, dated 2003).
